We go through one substance from US6623933B1 (priority 1999, dated 2003).

Common to all, as to type: cell-based
One experiment has as its target T1, NR1001/NR2B (Rattus norvegicus, UniProt P35439+Q00960).
T1 construct: expressed in transfected cells; host or cells: Xenopus oocytes
Put plainly: NMDA receptor currents in Ba-Ringer, Xenopus oocytes, Example 3.

The subject of experiment [1] is AMPA/kainate receptor (rat brain poly(A)+ RNA). The experiment is described as follows: Kainate-evoked currents, Xenopus oocytes injected with rat brain poly(A)+ RNA.
The next experiment deals with T2, NR1000/NR2B (Rattus norvegicus, UniProt P35439+Q00960).
T2 construct: expressed in transfected cells; host or cells: Xenopus oocytes injected with RNA
Put plainly: NMDA receptor currents in Ba-Ringer, Xenopus oocytes, Example 3.

In another experiment the target is T3, NR1100/NR2B (Rattus norvegicus, UniProt P35439+Q00960).
T3 construct: expressed in transfected cells; host or cells: Xenopus oocytes injected with RNA
The description is as above.

T1 sequence (Q00960 27-1482, other chains not shown): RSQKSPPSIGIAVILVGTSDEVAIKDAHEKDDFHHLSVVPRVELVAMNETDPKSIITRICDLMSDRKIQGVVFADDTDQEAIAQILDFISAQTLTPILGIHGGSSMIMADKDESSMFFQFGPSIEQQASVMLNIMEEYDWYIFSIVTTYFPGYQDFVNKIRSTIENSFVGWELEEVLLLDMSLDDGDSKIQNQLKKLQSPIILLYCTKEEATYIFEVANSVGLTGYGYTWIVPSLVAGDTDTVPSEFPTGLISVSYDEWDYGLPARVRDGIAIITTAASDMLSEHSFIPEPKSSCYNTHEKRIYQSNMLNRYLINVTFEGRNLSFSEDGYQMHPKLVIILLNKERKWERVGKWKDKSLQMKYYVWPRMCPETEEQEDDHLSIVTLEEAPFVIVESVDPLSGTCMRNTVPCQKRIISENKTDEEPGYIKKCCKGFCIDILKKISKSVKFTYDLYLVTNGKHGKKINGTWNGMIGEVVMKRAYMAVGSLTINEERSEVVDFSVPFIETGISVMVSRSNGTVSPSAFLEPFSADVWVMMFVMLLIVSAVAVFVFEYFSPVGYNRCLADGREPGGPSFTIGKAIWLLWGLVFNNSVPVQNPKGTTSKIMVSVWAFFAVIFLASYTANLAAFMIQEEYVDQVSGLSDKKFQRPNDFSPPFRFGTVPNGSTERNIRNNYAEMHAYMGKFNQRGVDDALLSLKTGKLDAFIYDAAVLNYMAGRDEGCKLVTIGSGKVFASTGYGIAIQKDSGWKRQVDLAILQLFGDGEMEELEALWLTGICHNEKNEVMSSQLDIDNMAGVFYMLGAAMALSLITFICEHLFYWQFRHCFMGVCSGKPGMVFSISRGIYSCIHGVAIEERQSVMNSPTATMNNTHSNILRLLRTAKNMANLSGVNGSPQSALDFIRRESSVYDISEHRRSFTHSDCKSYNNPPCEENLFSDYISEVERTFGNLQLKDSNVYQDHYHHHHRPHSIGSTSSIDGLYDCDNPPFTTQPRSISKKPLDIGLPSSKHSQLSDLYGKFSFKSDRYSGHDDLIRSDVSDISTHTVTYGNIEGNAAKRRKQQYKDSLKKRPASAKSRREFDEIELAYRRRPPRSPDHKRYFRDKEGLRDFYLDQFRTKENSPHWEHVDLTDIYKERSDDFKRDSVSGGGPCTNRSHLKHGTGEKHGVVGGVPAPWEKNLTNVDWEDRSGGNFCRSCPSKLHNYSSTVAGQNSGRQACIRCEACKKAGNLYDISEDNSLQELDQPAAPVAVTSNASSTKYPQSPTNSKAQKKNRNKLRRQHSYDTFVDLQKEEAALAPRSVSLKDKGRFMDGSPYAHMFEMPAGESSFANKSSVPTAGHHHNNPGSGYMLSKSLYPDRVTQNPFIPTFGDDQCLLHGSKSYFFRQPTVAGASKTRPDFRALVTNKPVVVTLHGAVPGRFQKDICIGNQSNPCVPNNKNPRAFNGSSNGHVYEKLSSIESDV
T3 sequence (Q00960 27-1482, other chains not shown): as above
T2 sequence (Q00960 27-1482, other chains not shown): as above

For the substance pregnenolone sulfate [PS], the “PS Emax” value is on record as 0.63 ± 0.07 at NR1001/NR2B, 0.58 ± 0.04 on NR1000/NR2B and 1.02 ± 0.10 on NR1100/NR2B. The figures for the “PS nHill” value on NR1001/NR2B, at NR1000/NR2B and at NR1100/NR2B were 1.34 ± 0.17, 1.52 ± 0.15 and 1.42 ± 0.11, respectively. Moreover, the onset of inhibition in experiment [1] is given as < 10 s. For the same substance, in experiment [1] (100 μM PS, 100 μM kainate), the “reduction in kainate-evoked responses” value turned out to be 49±3%.
